Assay results: patent US8415357B2 (Canbas Co., Ltd., priority 2007, dated 2013)

Tested on: Jurkat cells
Test: Adaptation to G2 cell cycle arrest (G1 increment) in X-ray pre-arrested Jurkat cells, flow cytometry
Assay type: cell-based, human
Settings: Homo sapiens, Jurkat, 24 h, Table 2; concentration causing half-maximal increase of % cells in G1 phase (G1 increment); Jurkat pre-arrested by 10 Gy X-ray, 24 hours with compound
Procedure: Phenotype-based screening was used to measure the ability of compounds of the invention to cause adaptation to G2 cell cycle arrest in G2-arrested cells. Adaptation to G2 cell cycle arrest and re-entry into the cell cycle can result in death of the previously G2-arrested cell, or suppression (inhibition) of further proliferation of the previously G2-arrested cell. In a non-limiting embodiment, the ability to cause adaptation to G2 cell cycle arrest was measured by contacting cells in which G2 arrest had been induced by irradiation (e.g., gamma (γ) radiation or X-ray radiation), with compounds of the invention at various concentrations and, for each compound at each concentration, determining the percentage of cells that escaped G2 arrest and re-entered the cell cycle, by determining the percentage of cells in G1 phase. The IC50 value for each compound was calculated as the dosage (usually in μM) that caused half-maximal increase of the percentage of cells in G1 phase (the G1 increment) measured for that compound. Certain invention compounds were initially identified by phenotype-based screening of small molecule libraries for activity against G2-arrested cells as described above.
Jurkat cells (a human T cell lymphoma-derived cell line) were arrested at the G2 phase by X-ray irradiation at 10 Gy, and cultured for 24 hours in 10% fetal calf serum (FCS)/RPMI1640 at 37° C. with 5% CO2/air. (FCS was from Equitech-Bio, Kerrville, Tex., and RPMI1640 was from Sigma-Aldrich, St. Louis, Mo.) Test compounds were added to the medium at the indicated doses, and the cells were cultured under the conditions described above, for an additional 24 hours before harvesting.
Harvested cells were stained with Krishan's buffer (0.1% sodium citrate, 50 μg/ml propidium iodide, 20 μg/ml RNase A, 0.5% Nonidet P-40) and analyzed by flow cytometry (BD Biosciences, Franklin Lakes, N.J.) to identify the cell stage of each cell in the sample. Cells in G1 phase were identified by having […] (2N) DNA content.
The IC50 value for each compound was calculated as the dosage showing half maximal activity to induce the increase of the percentage of cells in G1 phase (the G1 increment). IC50 values were used to measure the activity of compounds and to determine structure-activity relationships.
Pre-arrested Jurkat cells were prepared as described in Example 1. Briefly, Jurkat cells were subjected to X-ray irradiation at a dose of 10 Gy, and cultured for 24 hours in 10% fetal calf serum (FCS)/RPMI1640 at 37° C. with 5% CO2/air, after which time cells were exposed to various concentrations of test compounds, and cultured under the conditions described above for an additional 24 hours before harvesting. Harvested cells were stained with Krishan's buffer (0.1% sodium citrate, 50 μg/ml propidium iodide, 20 μg/ml RNase A, 0.5% Nonidet P-40) and analyzed by flow cytometry (BD Biosciences, Franklin Lakes, N.J.) to identify the cell stage of each cell in the sample. Cells in G1 phase were identified by having […] (2N) DNA content.
The IC50 value for each compound was calculated as the dosage (concentration in μM) that caused half-maximal increase of the percentage of cells in G1 phase (the G1 increment) measured for that test compound. Table 1 below presents the structure, mass, 1H NMR values, and […] values for representative compounds.
The IC50 value for each compound was calculated as the dosage (concentration in μM) that caused half-maximal increase of the percentage of cells in G1 phase (the G1 increment) measured for that test compound. Table 2 below presents structures, IUPAC name, molecular formula, ID number (“SCID”), mass, 1H NMR values, and IC50 values for representative compounds. Table 3 presents structures, IUPAC name, molecular formula, ID number (“SCID”), mass, 1H NMR values, and IC50 values for further representative compounds.

Row | Compound | IC50
1 | CC1=C(C)C(=O)N(Nc2cccc(-c3cccc(C(F)(F)F)c3)n2)C1=O [Compound S01691, 3,4-dimethyl-1-({6-[3-(trifluoromethyl)phenyl](2-pyridyl)}amino)azoline-2,5-dione] | 625 nM
2 | CCN(CC)C(=O)CCC1=C(C)C(=O)N(Nc2ccc(C(F)(F)F)c(Cl)n2)C1=O [Compound S01711, 3-(1-{[6-chloro-5-(trifluoromethyl)(2-pyridyl)]amino}-4-methyl-2,5-dioxoazolin-3-yl)-N,N-diethylpropanamide] | 156 nM
3 | CCOC(=O)C(CC1=C(C)C(=O)N(Nc2ccc(C(F)(F)F)c(Cl)n2)C1=O)C(=O)OCC [Compound S01712, Diethyl 2-[(1-{[6-chloro-5-(trifluoromethyl)(2-pyridyl)]amino}-4-methyl-2,5-dioxoazolin-3-yl)methyl]propane-1,3-dioate] | 156 nM
4 | CC1=C(C)C(=O)N(Nc2cc(Cl)c(C(F)(F)F)c(-c3ccccc3)n2)C1=O [Compound S01734] | 450 nM
5 | CC1=C(C)C(=O)N(Nc2cc(C(F)(F)F)cc(Cl)n2)C1=O [Compound S01737, 1-{[6-chloro-4-(trifluoromethyl)(2-pyridyl)]amino}-3,4-dimethylazoline-2,5-dione] | 312 nM
6 | CC1=C(CCC(=O)NC(C)(C)C)C(=O)N(Nc2ccc(C(F)(F)F)c(Cl)n2)C1=O [Compound S01758, N-(tert-butyl)-3-(1-{[6-chloro-5-(trifluoromethyl)(2-pyridyl)]amino}-4-methyl-2,5-dioxoazolin-3-yl)propanamide] | 156 nM
7 | CC1=C(CCC(=O)N(C)c2ccccc2)C(=O)N(Nc2ccc(C(F)(F)F)c(Cl)n2)C1=O [Compound S01759, 3-(1-{[6-chloro-5-(trifluoromethyl)(2-pyridyl)]amino}-4-methyl-2,5-dioxoazolin-3-yl)-N-methyl-N-phenylpropanamide] | 625 nM
8 | CC1=C(C)C(=O)N(Nc2ccc(C(F)(F)F)c(Cc3ccccc3)n2)C1=O [Compound S01762, 3,4-dimethyl-1-{[6-benzyl-5-(trifluoromethyl)(2-pyridyl)]amino}azoline-2,5-dione] | 625 nM
9 | CON(C)C(=O)CCC1=C(C)C(=O)N(Nc2ccc(C(F)(F)F)c(Cl)n2)C1=O [Compound S01796, 3-(1-{[6-chloro-5-(trifluoromethyl)(2-pyridyl)]amino}-4-methyl-2,5-dioxoazolin-3-yl)-N-methoxy-N-methylpropanamide] | 78 nM
10 | CC(=O)N(c1ccc(C(F)(F)F)c(Cl)n1)N1C(=O)C(C)=C(CO)C1=O [Compound S01820, N-[6-chloro-5-(trifluoromethyl)(2-pyridyl)]-N-[4-(hydroxymethyl)-3-methyl-2,5-dioxoazolinyl]acetamide] | 625 nM
11 | CC1=C(C)C(=O)N(Nc2cc(CN3CCN(S(=O)(=O)c4ccccc4)CC3)c3ccc(Br)cc3n2)C1=O [Compound S01822, 1-[(7-bromo-4-{[4-(phenylsulfonyl)piperazinyl]methyl}(2-quinolyl))amino]-3,4-dimethylazoline-2,5-dione] | 625 nM
12 | CCOC(=O)CCC1=C(C)C(=O)N(Nc2ccc(C(F)(F)F)c(Cl)n2)C1=O [Compound S01861, Ethyl 3-(1-{[6-chloro-5-(trifluoromethyl)(2-pyridyl)]amino}-4-methyl-2,5-dioxoazolin-3-yl) propanoate] | 50 nM
13 | CC1=C(C)C(=O)N(Nc2cc(CNC3CCN(C(=O)OC(C)(C)C)CC3)c3ccc(Br)cc3n2)C1=O [Compound S01862, tert-butyl 4-[({2-[(3,4-dimethyl-2,5-dioxoazolinyl)amino]-7-bromo-4-quinolyl}methyl)amino]piperidinecarboxylate] | 937 nM
14 | CC1=C(C)C(=O)N(Nc2cc(CN3CCC(NC(=O)OC(C)(C)C)C3)c3ccc(Br)cc3n2)C1=O (stereo not shown) [Compound S01864, N-[1-({2-[(3,4-dimethyl-2,5-dioxoazolinyl)amino]-7-bromo(4-quinolyl)}methyl)pyrrolidin-3-yl] (tert-butoxy)carboxamide] | 468 nM
15 | COC(=O)CCC1=C(C)C(=O)N(Nc2cc(CN3CCN(C(=O)OC(C)(C)C)CC3)c3ccc(Br)cc3n2)C1=O [Compound S01865, Methyl 3-(1-{[4-({4-[(tert-butyl)oxycarbonyl]piperazinyl}methyl)-7-bromo (2-quinolyl)]amino}-4-methyl-2,5-dioxoazolin-3-yl)propanoate] | 312 nM
16 | CNC(=O)CCC1=C(C)C(=O)N(Nc2ccc(C(F)(F)F)c(Cl)n2)C1=O [Compound S01883, 3-(1-{[6-chloro-5-(trifluoromethyl)(2-pyridyl)]amino}-4-methyl-2,5-dioxoazolin-3-yl)-N-methylpropanamide] | 234 nM
17 | CC1=C(C)C(=O)N(Nc2cc(CN3CCN(C4CCN(C(=O)OC(C)(C)C)CC4)CC3)c3ccc(Br)cc3n2)C1=O [Compound S01928, tert-butyl 4-[4-({2-[(3,4-dimethyl-2,5-dioxoazolinyl)amino]-7-bromo-4-quinolyl}methyl)piperazinyl]piperidinecarboxylate] | 938 nM

More lines, now with the values ahead:

Row | IC50 | Compound
18 | 625 nM | CC1=C(C)C(=O)N(Nc2cc(CN3CCN(C(=O)c4ccccc4)CC3)c3ccc(Br)cc3n2)C1=O [Compound S01699, 1-[(7-bromo-4-{[4-(phenylcarbonyl)piperazinyl]methyl}(2-quinolyl))amino]-3,4-dimethylazoline-2,5-dione]
19 | 625 nM | CC1=C(C)C(=O)N(Nc2cc(CN3CCN(C(=O)c4ccc(C)cc4C)CC3)c3ccc(Br)cc3n2)C1=O [Compound S01800, 1-{[4-({4-[(2,4-dimethylphenyl)carbonyl]piperazinyl}methyl)-7-bromo (2-quinolyl)]amino}-3,4-dimethylazoline-2,5-dione]
20 | 625 nM | COc1ccc(C(=O)N2CCN(Cc3cc(NN4C(=O)C(C)=C(C)C4=O)nc4cc(Br)ccc34)CC2)cc1 [Compound S01801, 1-{[7-bromo-4-({4-[(4-methoxyphenyl)carbonyl]piperazinyl}methyl) (2-quinolyl)]amino}-3,4-dimethylazoline-2,5-dione]
21 | 468 nM | CC1=C(C)C(=O)N(Nc2cc(CN3CCN(C(=O)c4ccc(F)cc4)CC3)c3ccc(Br)cc3n2)C1=O [Compound S01877, 1-{[7-bromo-4-({4-[(4-fluorophenyl)carbonyl]piperazinyl}methyl) (2-quinolyl)]amino}-3,4-dimethylazoline-2,5-dione]
22 | 234 nM | CC1=C(C)C(=O)N(Nc2cc(CN3CCN(C(=O)c4ccccc4Cl)CC3)c3ccc(Br)cc3n2)C1=O [Compound S01878, 1-{[7-bromo-4-({4-[(2-chlorophenyl)carbonyl]piperazinyl}methyl) (2-quinolyl)]amino}-3,4-dimethylazoline-2,5-dione]
23 | 78 nM | COc1ccccc1C(=O)N1CCN(Cc2cc(NN3C(=O)C(C)=C(C)C3=O)nc3cc(Br)ccc23)CC1 [Compound S01879, 1-{[7-bromo-4-({4-[(2-methoxyphenyl)carbonyl]piperazinyl}methyl) (2-quinolyl)]amino}-3,4-dimethylazoline-2,5-dione]
24 | 312 nM | CC1=C(C)C(=O)N(Nc2cc(CN3CCN(C(=O)c4ccc(N(C)C)cc4)CC3)c3ccc(Br)cc3n2)C1=O [Compound S01880, 1-({4-[(4-{[4-(dimethylamino)phenyl]carbonyl}piperazinyl)methyl]-7-bromo (2-quinolyl)}amino)-3,4-dimethylazoline-2,5-dione]
25 | 156 nM | COc1cccc(C(=O)N2CCN(Cc3cc(NN4C(=O)C(C)=C(C)C4=O)nc4cc(Br)ccc34)CC2)c1 [Compound S01925, 1-{[7-bromo-4-({4-[(3-methoxyphenyl)carbonyl]piperazinyl}methyl) (2-quinolyl)]amino}-3,4-dimethylazoline-2,5-dione]
